Source: patent US7666898B2, “Multivalent indole compounds and use thereof as phospholipase-A2 inhibitors” (Ilypsa, Inc., priority 2005, dated 2010)

Key:
[1] = target: human pancreatic secreted PLA2 (hps PLA2) (Homo sapiens, UniProt P04054); conditions: reported literature data; cited from earlier work
[2] = target: porcine pancreatic secreted PLA2 (pps PLA2) (Sus scrofa, UniProt P00592); conditions: reported literature data; cited from earlier work
[3] = target: T1, human non-pancreatic PLA2 (hnp PLA2) (Homo sapiens, UniProt P14555); conditions: reported literature data; cited from earlier work
T1 sequence (P14555 21-144): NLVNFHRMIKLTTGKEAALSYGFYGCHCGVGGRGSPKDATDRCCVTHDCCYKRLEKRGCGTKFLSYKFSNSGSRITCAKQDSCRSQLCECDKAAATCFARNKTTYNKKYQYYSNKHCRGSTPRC

[4] = system: C57BL/6J mouse model of obesity; experiment: Mouse diet-induced obesity model (Example 14); format: in vivo; conditions: low fat control diet D12328, 25 or 90 mg/kg/d, vs low fat diet alone
From the text: The high-fat diet-fed C57BL/6J mouse model of human diabetes, originally introduced by Surwit and colleagues (Surwit, R S, et al. (1988) “Diet-induced type II diabetes in C57BL/6J mice”, Diabetes 37: 1163-1167) is a widely accepted, clinically relevant, polygenic model that induces obesity, dyslipidemia, glucose- and insulin-resistance as early as 3 weeks after commencing the high fat diet (Winzell, M S and Ahren, B (2004) “The high-fat diet-fed mouse: a model for studying mechanisms and treatment of impaired glucose tolerance and type 2 diabetes”, Diabetes 53 Suppl 3: S215-219). This model was used to investigate the effects of indole and indole-related Test Articles. Avandia (rosiglitazone) was used as a control Test Article.
Female C57Black/6J mice (5-6 weeks old) were obtained from Jackson laboratories (Bar Harbor, Me.). […] Diet and water was provided ad libitum throughout the course of the study. Animals were acclimated for at least seven days, and then randomized by weight into twelve groups of eight animals each. Each group of animals was placed on diets with and without Test Articles as described in Table 12. All diets other than Laboratory Rodent Diet 5001 were provided by Research Diets (New Brunswick, N.J.).
In these studies and the accompanying figures, Diet D12328 from Research Diets is referred to as the “Low Fat” or Control diet/chow, while Diet D12331 from Research Diets is referred to as the “High Fat” diet. Groups 1-6 were fed diet D12328 that contained either no drug (Group 1) or varying amounts of Test Articles (Groups 2-6). Groups 7-12 were fed diet D12331 that contained either no drug (Group 7) or varying amounts of Test Articles (Groups 8-12). The Test Article content was calculated such that ad libitum consumption by the animals would deliver doses (in mg of Test Article per kg animal weight per day) approximating those listed in Table 12.
Animals were maintained on the diets for up to eleven weeks. Body weights were recorded weekly. Blood was drawn within 1-2 hrs of lights-on. without fasting. The serum was analyzed for glucose, total cholesterol, triglycerides (TG) and lysophospholipid (LPC) content.
Statistical analyses were performed using GraphPad Prism 4.03. (GraphPad Software, Inc., San Diego, Calif.). Two sets of statistical analyses were performed. First, the Low Fat Chow, no treatment group was compared by student's two-tailed T-test against the High Fat, High Sucrose diet, no treatment group. […] Second, all treatment groups on the High Fat, High Sucrose diet were compared to the no-treatment group on that diet by 1-way ANOVA, followed by a Dunnett's post-test.

[5] = system: LDL receptor knockout mice (B6.129S7-Ldlrtm1Her); experiment: LDL receptor knockout mouse model (Example 15); format: in vivo; conditions: low fat control diet D12328, 25 or 90 mg/kg/d, vs low fat diet alone
From the text: Mice lack an enzyme found in humans, cholesterol ester transfer protein (CETP), which is responsible for the transfer of cholesterol from high density lipoproteins (HDL) to the ApoB-containing lipoproteins such as very low density lipoproteins (VLDL) and low density lipoproteins (LDL). Consequently, LDL cholesterol levels in wild-type mice are very low compared to those seen in humans. The low density lipoprotein receptor (LDLR) is involved with clearing LDL and lipoprotein remnants containing apoE. If the LDLR is inactivated, LDL cholesterol levels rise to levels seen in humans. On a normal rodent diet, the LDL cholesterol levels in LDLR deficient mice are elevated compared to wild-type mice. If the LDLR deficient mice are fed a Western-type diet containing elevated levels of fats and cholesterol, then the total cholesterol and LDL cholesterol levels become highly elevated and can exceed 1000 mg/dL and 300 mg/dL, respectively. This model was used to investigate the effects of indole and indole-related Test Articles. Avandia (rosiglitazone) and Zetia (ezetimibe) were used as control test articles.
Male LDL receptor knockout mice (B6.129S7-Ldlrtm1Her) were obtained from Jackson Labs (Bar Harbor, Me.). […] Diet and water was provided ad libitum throughout the course of the study. Animals were acclimated for at least seven days, and then randomized by body weight into fourteen groups of seven animals each. Each group of animals was placed on diets with and without Test Articles as described in Table 13. All diets other than Laboratory Rodent Diet 5001 were provided by Research Diets (New Brunswick, N.J.).
In these studies and the accompanying figures, Diet D12328 from Research Diets is referred to as the “Low Fat” or Control diet, while Diet D12079B from Research Diets is referred to as the “Western” diet. Groups 1-7 were fed diet D12328 that contained either no drug (Group 1) or varying amounts of Test Articles (Groups 2-7). Groups 8-14 were fed diet D12079 that contained either no drug (Group 8) or varying amounts of Test Articles (Groups 9-14). The Test Article content was calculated such that ad libitum consumption by the animals would deliver doses (in mg of Test Article per Kg animal weight per day) approximating those listed in Table 13.
Animals were maintained on the diets for eight weeks. Body weights were recorded weekly. Blood was drawn within 1-2 hrs of lights-on, without fasting. The serum was analyzed for total cholesterol, LDL cholesterol, HDL cholesterol, triglycerides (TG), free fatty acid (FFA) and lysophospholipid (LPC) content.
Statistical analyses were performed using GraphPad Prism 4.03. (GraphPad Software, Inc., San Diego, Calif.). Two sets of statistical analyses were performed. […]

[6] = Toxicology, 5-day daily oral gavage; format: in vivo, mice; conditions: 5 consecutive days
From the text: The purpose of this study was to evaluate the toxicity of indole and indole-related Test Articles when administered daily via oral gavage to mice for 5 consecutive days.
Assessment of toxicity was based on mortality; clinical signs, body weight, food consumption, clinical pathology, and macroscopic pathology data.

[7] = Mouse pharmacokinetic study (Example 13); conditions: for bioavailability: male, CD-1, mouse, in vivo, po, 30 mg/kg
Method: The plasma exposure of male CD-1 mice to indole and indole-related test articles (TAs) following intravenous (IV, 3 mg/kg) and oral (PO, 30 mg/kg) routes of administration was measured. This model was used to investigate the bioavailability of indole and indole-related TAs in mouse.
Two groups (N=18 and 27) of male CD-1 mice were used for the study.
The components were mixed by vortexing and sonicating in a warming bath for 60 minutes. Animals were fasted overnight prior to start of the study. On study day (1), formulations were sonicated for an hour to make sure that no visible particles were present prior to dosing, or if present were evenly distributed in suspension. Formulated test article were stirred continuously during dosing.
All animals were weighed on study day (1) and the body weights were recorded and used for dose calculation. […] Blood samples (0.5 mL) were collected at specified time intervals into labeled, yellow-capped Microtainer tubes. The tubes were centrifuged (8,000×g, 10 min). Serum was then pipetted off into labeled Eppendorf® tubes and frozen at −80° C. Clinical observations were recorded as needed.
Analysis of serum samples was performed by LC/MS/MS (Waters Quattro Premier, Milford, Mass.). Areas under curves (AUC) were calculated using Graphpad Prism Version 4. Bioavailability was calculated using the following equation: (Bioavailability)=(AUC0-t, oral/AUC0-t, iv)×(Doseiv/Doseoral)×100 where AUC0-t=total area under curve at the last measurable time point

[8] = target: T2, mouse group 1B PLA2 (mps PLA2) (Mus musculus, UniProt Q9Z0Y2); experiment: Fluorimetric PLA2 inhibition assay, mouse (Example 8); format: biochemical; conditions: read-out: ILYPSA % inhibition at 15 μM mps PLA2
T2 construct: made in house; host or cells: E. coli
From the text: (§1) In this example, a fluorimetric assay procedure was used to evaluate the indole and indole-related compounds of the invention as inhibitors of group 1B phospholipase A2 (PLA2) from human, mouse and porcine.
(§2) In general, this assay used a phosphatidylmethanol substrate with a pyrene fluorophore on the terminal end of the sn-2 fatty acyl chain. Without being bound by theory, close proximity of the pyrenes from neighboring phospholipids in a phospholipid vesicle caused the spectral properties to change relative to that of monomeric pyrene. Bovine serum albumin was present in the aqueous phase and captured the pyrene fatty acid when it is liberated from the glycerol backbone owing to the PLA2-catalyzed reaction. […] The effect of a given inhibitor and inhibitor concentration on human, mouse and porcine phospholipase was determined.
(§3) Recombinant human and mouse group 1B PLA2 were cloned and expressed in E. coli as insoluble inclusion bodies. The inclusion bodies were isolated and purified by sonicating cell pellet in lysis buffer (50 mM Tris-HCl pH 7.0, 250 mM NaCl, 0.5% Triton 100), centrifugation at 12,000×g, and washing three times in washing buffer (20 mM Tris-HCl pH 7.0, 250 mM NaCl, 0.5% Triton 100). Then the inclusion bodies were dissolved in dissolving buffer (50 mM Tris-HCl pH 7.0, 250 mM NaCl, 6 M Guanidine-HCl, 1 mM DTT) and dialyzed four times against 10 volumes of refolding buffer (20 mM Tris-HCl pH 7.0, 250 mM NaCl, 0.5M Guanidine-HCl, 5% (w/w) Glycerol, 2 mM reduced glutathione and 0.4 mM oxidized glutathione) at 4° C. The correctly refolded proteins were concentrated using Amicon Stirred cell under nitrogen pressure (<70 psi) and dialyzed against 10 volumes of 50 mM Tris-HCl pH 7.0, 250 mM NaCl and 5% (w/w) glycerol. Human and mouse group 1B PLA2 were further purified by High S ion exchange and gel filtration columns.
(§4) The following reagents were prepared: • 1. PPyrPM stock solution (1 mg/ml) in toluene:isopropanol (1:1) • 2. […]
(§5) The following procedure was performed to evaluate the inhibitory potency of the evaluated compounds. • 1. […]

[9] = target: T3, human group 1B PLA2 (hps PLA2) (Homo sapiens, UniProt P04054); experiment: Fluorimetric PLA2 inhibition assay, human (Example 8); format: biochemical; conditions: read-out: ILYPSA % inhibition at 15 μM hps PLA2
T3 construct: made in house; host or cells: E. coli
T3 sequence (P04054 23-148): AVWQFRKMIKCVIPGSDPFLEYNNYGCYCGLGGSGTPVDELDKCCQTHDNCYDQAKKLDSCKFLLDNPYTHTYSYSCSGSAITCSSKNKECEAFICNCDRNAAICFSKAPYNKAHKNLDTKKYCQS
From the text: as §1, §2, §3, §4, §5

Sequence of porcine pancreatic secreted PLA2 (pps PLA2) (P00592 23-146): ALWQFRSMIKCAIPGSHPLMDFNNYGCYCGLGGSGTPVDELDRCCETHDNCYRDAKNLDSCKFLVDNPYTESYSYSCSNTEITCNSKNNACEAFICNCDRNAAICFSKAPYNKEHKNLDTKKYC
Sequence of human pancreatic secreted PLA2 (hps PLA2) (P04054 23-148): as the sequence (P04054 23-148) above
T2 sequence (Q9Z0Y2 23-146): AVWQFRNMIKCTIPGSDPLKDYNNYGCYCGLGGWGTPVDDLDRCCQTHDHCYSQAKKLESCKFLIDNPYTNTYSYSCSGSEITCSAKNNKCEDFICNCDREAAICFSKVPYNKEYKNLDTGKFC

## Cc1c(CC(N)=O)c2c(OCCCC(=O)O)cccc2n1Cc1ccccc1
[1]
  IC50: 3.66 µM

## Cc1c(CC(N)=O)c2cc(OCc3ccc(C(=O)O)cc3)ccc2n1Cc1ccccc1
[1]
  IC50: 22.5 µM
[2]
  IC50: 7.5 µM
[3]
  IC50: 0.147 ± 0.009 µM

## NC(=O)Cc1c(Br)n(Cc2ccccc2)c2ccc(OCCCC(=O)O)cc12
[1]
  IC50: 15.9 µM
[2]
  IC50: 2.86 µM

## NC(=O)Cc1c(Br)n(Cc2ccccc2)c2ccc(OCCCP(=O)(O)O)cc12
[1]
  IC50: 6.2 µM
[2]
  IC50: 2.2 µM

## CCc1c(CC(N)=O)c2cc(OCCCP(=O)(O)O)ccc2n1Cc1cccc(Cl)c1
[1]
  IC50: 46.2 µM

## Cc1c(CC(N)=O)c2cc(CCCC(=O)O)ccc2n1Cc1ccccc1
[1]
  IC50: 94 µM

## CCc1c(CC(N)=O)c2cc(SCCCC(=O)O)ccc2n1Cc1ccccc1
[1]
  IC50: 16 µM

## Cc1c(CC(=O)NN)c2cc(OCCCC(=O)O)ccc2n1Cc1ccccc1
[1]
  IC50 (μM) hps PLA2: no activity
[2]
  IC50 (μM) pps PLA2: no activity

## CCc1c(C(=O)C(N)=O)c2c(OCC(=O)O)cccc2n1Cc1ccccc1-c1ccccc1
[1]
  IC50: 0.062 µM
[3]
  IC50: 0.004 ± 0.001 µM

## Cc1c(C(=O)C(N)=O)c2c(/C=C/C(=O)O)cccc2n1Cc1ccccc1
[1]
  IC50: > 100 µM

## Cc1c(C(=O)C(N)=O)c2c(CCC(=O)O)cccc2n1Cc1ccccc1
[1]
  IC50: > 100 µM

## 2,2′,2″-(1,1′,1″-(12,12′,12″-(benzene-1,3,5-triyltris(oxy))tris(dodecane-12,1-diyl))tris(3-(2-amino-2-oxoacetyl)-2-methyl-1H-indole-4,1-diyl))tris(oxy)triacetic acid [ILY-v-32]
[4]
  effect in animals fed a low fat control diet containing test article: No or little effect
[5]
  effect in animals fed a low fat control diet containing test article: No or little effect
[6]
  clinical pathology data, treated groups vs vehicle control group: no differences

## Cc1c(C(=O)C(N)=O)c2c(OCC(=O)NS(=O)(=O)CCCC(=O)O)cccc2n1Cc1ccccc1 [ILY-IV-40, 4-[2-(3-Aminooxalyl-1-benzyl-2-methyl-1H-indol-4-yloxy)-acetylsulfamoyl]-butyric acid]
[4]
  effect in animals fed a low fat control diet containing test article: No or little effect
[5]
  effect in animals fed a low fat control diet containing test article: No or little effect
[7]; PO 30 mg/kg vs IV 3 mg/kg, CD-1 mice, serum LC/MS/MS
  Bioavailability (%): 0.50%
[6]
  clinical pathology data, treated groups vs vehicle control group: no differences

## Cc1c(C(=O)C(N)=O)c2c(OC(Br)(C(N)=O)C(F)(F)F)cccc2n1Cc1ccccc1 (centres unmarked) [ILY-IV-53, 2-(3-Aminooxalyl-1-benzyl-2-methyl-1H-indol-4-yloxy)-2-bromo-3,3,3-trifluoro-propionamide]
[8]
  inhibition at 15 µM: 49.7%
[9]
  inhibition at 15 µM: 49%

## Cc1c(C(=O)C(N)=O)c2c(OCC(=O)O)cccc2n1CCCCCCCCCCCCSCCCCCCCCSCCCCCCCCCCCCn1c(C)c(C(=O)C(N)=O)c2c(OCC(=O)O)cccc21 [ILY-v-26, 2,2′-(1,1′-(12,12′-(Octane-1,8-diylbis(sulfanediyl))bis(dodecane-12,1-diyl))bis(3-(2-amino-2-oxoacetyl)-2-methyl-1H-indole-4,1-diyl))bis(oxy)diacetic acid]
[4]
  effect in animals fed a low fat control diet containing test article: No or little effect
[5]
  effect in animals fed a low fat control diet containing test article: No or little effect
[6]
  clinical pathology data, treated groups vs vehicle control group: no differences

## Cc1c(C(=O)C(N)=O)c2c(OCC(=O)O)cccc2n1CCCCCCCCCCCCOc1ccccc1OCCCCCCCCCCCCn1c(C)c(C(=O)C(N)=O)c2c(OCC(=O)O)cccc21 [ILY-v-27, [3-Aminooxalyl-1-(12-{2-[12-(3-aminooxalyl-4-carboxymethoxy-2-methyl-indol-1-yl)-dodecyloxy]-phenoxy}-dodecyl)-2-methyl-1H-indol-4-yloxy]-acetic acid]
[7]
  bioavailability: 1.49%

## Cc1c(C(=O)C(N)=O)c2c(OCC(=O)O)cccc2n1CCCCCCCCCCCCOc1ccc(C(C)(C)c2ccc(OCCCCCCCCCCCCn3c(C)c(C(=O)C(N)=O)c4c(OCC(=O)O)cccc43)cc2)cc1 [ILY-v-30, 2,2′-(1,1′-(12,12′-(4,4′-(propane-2,2-diyl)bis(4,1-phenylene))bis(oxy)bis(dodecane-12,1-diyl))bis(3-(2-amino-2-oxoacetyl)-2-methyl-1H-indole-4,1-diyl))bis(oxy)diacetic acid]
[4]
  effect in animals fed a low fat control diet containing test article: No or little effect
[5]
  effect in animals fed a low fat control diet containing test article: No or little effect
[6]
  clinical pathology data, treated groups vs vehicle control group: no differences

## Cc1c(C(=O)C(N)=O)c2c(OCC(=O)O)cccc2n1CCCCCCCCCCCCN(CCCCCCCCCCCCn1c(C)c(C(=O)C(N)=O)c2c(OCC(=O)O)cccc21)Cc1ccccc1 [ILY-v-31, 2,2′-(1,1′-(12,12′-(benzylazanediyl)bis(dodecane-12,1-diyl))bis(3-(2-amino-2-oxoacetyl)-2-methyl-1H-indole-4,1-diyl))bis(oxy)diacetic acid]
[7]
  bioavailability: 5.15%

## Cc1c(C(=O)C(N)=O)c2c(OCC(=O)O)cccc2n1CCCCCCCCCCCCOc1ccccc1-c1ccccc1OCCCCCCCCCCCCn1c(C)c(C(=O)C(N)=O)c2c(OCC(=O)O)cccc21 [ILY-v-37, [3-Aminooxalyl-1-(12-{2′-[12-(3-aminooxalyl-4-carboxymethoxy-2-methyl-indol-1-yl)-dodecyloxy]-biphenyl-2-yloxy}-dodecyl)-2-methyl-1H-indol-4-yloxy]-acetic acid]
[6]
  clinical pathology data, treated groups vs vehicle control group: no differences
